Experimental data reported in the NIST ThermoML archive (doi:10.1021/je040008e).

Legend:
[1] = xn = mol fraction of the nth substance listed; details: 308.15 K, 101.33 kPa, Liquid; for speed of sound: Linear variable-path acoustic interferometer
[2] = 101.33 kPa, Liquid; for speed of sound: Linear variable-path acoustic interferometer

CCC(=O)c1ccccc1 [ethyl phenyl ketone] + CNC(C)=O
[1]
Details | excess molar volume [m3/mol] | speed of sound [m/s]
x1 = 0.06 | -2.003e-07 | 1368.3
x1 = 0.1269 | -3.185e-07 | 1374.7
x1 = 0.1862 | -3.356e-07 | 1380.6
x1 = 0.2778 | -2.912e-07 | 1388.9
x1 = 0.3654 | -2.106e-07 | 1397.8
x1 = 0.4649 | -1.397e-07 | 1406.6
x1 = 0.5709 | -8.14e-08 | 1413.5
x1 = 0.6929 | -1.92e-08 | 1419.6
x1 = 0.8315 | 3.82e-08 | 1426.6
x1 = 1 | 0 | 1432.1

CC(=O)c1ccc(C)cc1 [4'-methylacetophenone]
[2], 308.15 K
Details | mass density [kg/m3] | speed of sound [m/s]
– | 996.3 | 1437.9

CNC(C)=O [N-methylacetamide] + CC(=O)c1ccccc1
[1]
Details | excess molar volume [m3/mol] | speed of sound [m/s]
x2 = 0 | 0 | 1360
x2 = 0.0686 | -1.018e-07 | 1368.7
x2 = 0.138 | -1.732e-07 | 1376.6
x2 = 0.2189 | -2.437e-07 | 1386.8
x2 = 0.3143 | -2.579e-07 | 1398
x2 = 0.3938 | -2.476e-07 | 1406.1
x2 = 0.4912 | -2.365e-07 | 1415.3
x2 = 0.6042 | -1.695e-07 | 1424.2
x2 = 0.7223 | -1.212e-07 | 1431.4
x2 = 0.8517 | -5.09e-08 | 1438

CNC(C)=O [N-methylacetamide] + CC(=O)c1ccc(C)cc1
[1], x2 = 0
Details | excess molar volume [m3/mol] | speed of sound [m/s]
– | 0 | 1360

CNC(C)=O [N-methylacetamide] + CCC(=O)c1ccccc1
[1], x2 = 0
Details | excess molar volume [m3/mol] | speed of sound [m/s]
– | 0 | 1360

CC(=O)c1ccccc1 [acetophenone] + CNC(C)=O
[1], x1 = 1
Details | excess molar volume [m3/mol] | speed of sound [m/s]
– | 0 | 1445

CC(=O)c1ccccc1 [acetophenone]
[2]
Details | mass density [kg/m3] | speed of sound [m/s]
298.15 K | 1023.1 | –
308.15 K | – | 1445

CC(=O)c1ccc(Cl)cc1 [4'-chloroacetophenone]
[2]
Details | mass density [kg/m3] | speed of sound [m/s]
298.15 K | 1188.9 | –
308.15 K | – | 1390

CNC(C)=O [N-methylacetamide]
[2], 308.15 K
Details | mass density [kg/m3] | speed of sound [m/s]
– | 949.7 | 1360

CNC(C)=O [N-methylacetamide] + CC(=O)c1ccc(Cl)cc1
[1], x2 = 0
Details | excess molar volume [m3/mol] | speed of sound [m/s]
– | 0 | 1360

CC(=O)c1ccc(Cl)cc1 [4'-chloroacetophenone] + CNC(C)=O
[1]
Details | excess molar volume [m3/mol] | speed of sound [m/s]
x1 = 0.0644 | -2.11e-07 | 1363
x1 = 0.1311 | -3.3e-07 | 1366
x1 = 0.2036 | -4.53e-07 | 1369.3
x1 = 0.2825 | -5.363e-07 | 1372.4
x1 = 0.3696 | -5.889e-07 | 1375.8
x1 = 0.4664 | -5.934e-07 | 1379.5
x1 = 0.5774 | -5.393e-07 | 1382.6
x1 = 0.7003 | -4.298e-07 | 1385.1
x1 = 0.8405 | -2.52e-07 | 1387.6
x1 = 1 | 0 | 1390

CCC(=O)c1ccccc1 [ethyl phenyl ketone]
[2]
Details | mass density [kg/m3] | speed of sound [m/s]
298.15 K | 1009.2 | –
308.15 K | – | 1432.1

CC(=O)c1ccc(C)cc1 [4'-methylacetophenone] + CNC(C)=O
[1]
Details | excess molar volume [m3/mol] | speed of sound [m/s]
x1 = 0.0617 | -1.519e-07 | 1368.9
x1 = 0.1321 | -2.517e-07 | 1377.7
x1 = 0.2004 | -3.355e-07 | 1385.8
x1 = 0.2836 | -3.41e-07 | 1394.4
x1 = 0.3629 | -3.52e-07 | 1402.4
x1 = 0.4632 | -3.458e-07 | 1411.5
x1 = 0.5582 | -3.114e-07 | 1418.4
x1 = 0.689 | -2.508e-07 | 1426.9
x1 = 0.8305 | -1.92e-07 | 1434
x1 = 1 | 0 | 1437.9
